{"source": "patent US9226919B2", "about": "“Methods for dosing an orally active 1,2,4-oxadiazole” (PTC Therapeutics, Inc., priority 2006, dated 2016)", "key": {"[1]": {"system": "patients with nonsense-mutation-mediated cystic fibrosis", "assay": "Pulmonary function tests (FEV1, FVC), Phase 2 cystic fibrosis study", "format": "in vivo, human", "description": "Pulmonary function tests, including FEV1, FVC, and MEF25-75, are measured using standard spirometry procedures. Assessments of pulmonary function (including MEF25-75, FVC, and, particularly, FEV1) have been acknowledged as definitive clinical endpoints in patients with CF (Food and Drug Administration, 62nd Anti-Infective Drugs Advisory Committee. Discussion of NDA for tobramycin solution for inhalation (Tobi®) for the management of cystic fibrosis patients. November, 1997; Tiddens, 2002, Pediatr. Pulmonol. 34(3): 228-31). […] Pulmonary function testing is simple to administer (even in patients as young as 7 years of age), and uses standardized equipment and techniques that are widely available. Interpretation is performed using well-established normative equations that account for patient age, height, and gender.\n3-[5-(2-Fluoro-phenyl)-[1,2,4]oxadiazol-3-yl]-benzoic acid was provided in a formulation described herein.\nClinical endpoints were evaluated using the procedures set forth above. TEPD measurements were made prior to treatment and on days 14 and 28 of Cycle 1 and Cycle 2. Nasal mucosal curettage was collected from each nostril of each patient prior to treatment and on days 14 and 28 of Cycle 1 and Cycle 2. Pulmonary tests, including FEV1, FVC and MEF25-75, were measured prior to treatment, on day −1 of Cycle 2, on day 13 or 14 of Cycle 1 and day 13 or 14 of Cycle 2 in the study being conducted in Israel and the same parameters were measured prior to treatment and on day 13 or 14 of Cycle 2 in the study being conducted in the United States.\nStatistically significant results and positive trends for secondary endpoints were also observed. In particular, although the trials were not been powered to detect statistical significant changes in secondary endpoints, statistically significant improvements from study entry to the end of the higher-dose treatment cycle in the patients' mean FEV1, FVC and weight were observed."}, "dystrophin": {"system": "dystrophin", "assay": "In vitro myotube culture of patients' primary muscle cells, dystrophin expression", "format": "cell-based, human", "description": "Studies are performed on muscle tissue and skin from patients to determine whether dystrophin production in primary muscle cultures from the patients corresponds with dystrophin production in vivo. […] Correlations of skin cell response with clinical activity may offer an easy-to-obtain predictive test in selecting future patients for therapy or for screening new agents for the treatment of DMD. Cells are cultured as follows. Biopsy material is stored during transport in human proliferation medium (or PBS), and on ice for longer time periods if necessary. If the tissue is not prepared within 24 hours, the material can be frozen in human proliferation medium containing 10% DMSO and stored in liquid nitrogen (or dry ice). At the time the tissue is to be prepared for setting up the myoblast culture, biopsy material is washed in PBS. PBS sufficient to keep the tissue moist is added into a culture dish. The biopsy material is minced thoroughly with razor blades, toward an almost homogeneous suspension. Approximately 2 ml of collegenase/dispase/CaCl2 solution per gram of tissue is added and mincing is continued for several minutes (e.g. for a muscle biopsy of 5×5×5 mm use 1 ml of enzyme solution). […] The myogenic cell content of the culture is determined by performing a desmin-staining. […]"}, "[2]": {"conditions": "study entry to end of higher dose treatment"}}}
{"smiles": "O=C(O)c1cccc(-c2noc(-c3ccccc3F)n2)c1", "note": "[3-[5-(2-fluoro-phenyl)-[1,2,4]oxadiazol-3-yl]-benzoic acid]", "values": [{"measurement": "Mean FEV1 (percentage of normal for gender, age and height), End of Higher Dose Treatment", "setting": "[1]; end of higher-dose cycle (10, 10, 20 mg/kg TID), study entry 65.8%", "value": 69.1, "unit": "%"}, {"measurement": "Mean FVC (percentage of normal for gender, age and height), End of Higher Dose Treatment", "setting": "[1]; end of higher-dose cycle (10, 10, 20 mg/kg TID), study entry 80.2%", "value": 85.1, "unit": "%"}, {"measurement": "Mean FEV1 (percentage of normal), Change", "setting": "[1]; [2]", "value": 3.3, "unit": "%"}, {"measurement": "Mean FVC (percentage of normal), Change", "setting": "[1]; [2]", "value": 4.9, "unit": "%"}, {"measurement": "Dystrophin expression in myotube cultures", "setting": "dystrophin; cultured in the presence of the compound", "value": "dose-dependent increase in dystrophin expression"}, {"measurement": "In Vitro Expression Response (dystrophin)", "setting": "dystrophin; myotube culture of pre-treatment primary muscle cells of individual DMD patients", "value": "Yes"}]}
